Measurements taken from US7294637B2 (Sepracor, Inc., priority 2000, dated 2007).

Legend:
[1] = rodents, ex vivo binding; cited from earlier work
[2] = system: rats and monkeys; details: cited from earlier work; for effect on self-administration of cocaine: rats and monkeys
[3] = locomotor activity tests; cited from earlier work
[4] = molecular target: dopamine transporter (Rattus norvegicus, UniProt P23977); details: read-out: binding affinity for the dopamine transporter (IC50); cited from earlier work
[5] = baboon, intravenous; cited from earlier work
[6] = cited from earlier work
[7] = molecular target: DAT (Homo sapiens, UniProt Q01959); assay: cell-based; set-up: expressed in transfected cells; details: hDAT cell line; read-out: DA Uptake, Functional Assays (antagonism, EC50)
[8] = molecular target: norepinephrine transporter (Homo sapiens, UniProt P23975); assay: NE uptake: displacement of norephinephrine ligands in vitro (methods of Galli et al.); type: binding; details: NE Uptake, Uptake Profile (IC50, nM)
[9] = molecular target: dopamine transporter (Homo sapiens, UniProt Q01959); assay: DA uptake: displacement of dopamine ligands in vitro (methods of Gu et al.); details: DA Uptake, Uptake Profile (IC50, nM), displacement of dopamine ligands in vitro
[10] = system: ICR derived mice; assay: In vivo evaluation of 4: acute toxic symptoms, autonomic effects and mortality after i.v. dosing; set-up: species or system mouse; details: i.v., 5, 10, 20, and 30 mk/kg
Protocol: Compound 4 was administered i.v. to a group of 3 ICR derived male or female mice (˜22 gms) and observed for the presence of acute toxic symptoms (mortality, convulsions, tremors, muscle relaxation, sedation, etc.) and autonomic effects (diarrhea, salvation, lacrimation, vasodilation, piloerection, etc) during first 5 min (i.v).
Compound 4 was administered at doses of 5, 10, 20, and 30 mk/kg. […] After monitoring daily for 3 days, no mortality was observed.

[11] = molecular target: serotonin transporter (Homo sapiens, UniProt P31645); assay: 5-HT uptake: displacement of serotonin ligands in vitro (methods of Gu et al.); type: binding; details: 5-HT Uptake, Uptake Profile (IC50, nM)
serotonin transporter, sequence (P31645 whole entry): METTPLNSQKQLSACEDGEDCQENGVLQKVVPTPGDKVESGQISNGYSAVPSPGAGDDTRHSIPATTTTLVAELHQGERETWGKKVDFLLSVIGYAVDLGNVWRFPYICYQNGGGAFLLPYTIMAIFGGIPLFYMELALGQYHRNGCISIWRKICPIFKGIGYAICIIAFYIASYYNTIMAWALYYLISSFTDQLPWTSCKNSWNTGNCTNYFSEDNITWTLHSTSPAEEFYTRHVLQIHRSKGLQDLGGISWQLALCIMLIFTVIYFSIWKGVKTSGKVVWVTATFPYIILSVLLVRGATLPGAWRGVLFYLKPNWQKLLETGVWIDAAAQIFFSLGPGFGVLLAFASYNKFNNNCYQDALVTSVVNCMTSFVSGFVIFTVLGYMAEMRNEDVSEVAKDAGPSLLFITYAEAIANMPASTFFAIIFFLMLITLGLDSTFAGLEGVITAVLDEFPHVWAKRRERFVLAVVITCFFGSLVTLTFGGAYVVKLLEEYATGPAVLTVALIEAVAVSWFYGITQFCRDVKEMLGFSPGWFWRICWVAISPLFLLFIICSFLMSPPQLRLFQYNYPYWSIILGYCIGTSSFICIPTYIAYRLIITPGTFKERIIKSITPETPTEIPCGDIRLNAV

dopamine transporter (Rattus norvegicus, UniProt P23977), sequence (P23977 whole entry): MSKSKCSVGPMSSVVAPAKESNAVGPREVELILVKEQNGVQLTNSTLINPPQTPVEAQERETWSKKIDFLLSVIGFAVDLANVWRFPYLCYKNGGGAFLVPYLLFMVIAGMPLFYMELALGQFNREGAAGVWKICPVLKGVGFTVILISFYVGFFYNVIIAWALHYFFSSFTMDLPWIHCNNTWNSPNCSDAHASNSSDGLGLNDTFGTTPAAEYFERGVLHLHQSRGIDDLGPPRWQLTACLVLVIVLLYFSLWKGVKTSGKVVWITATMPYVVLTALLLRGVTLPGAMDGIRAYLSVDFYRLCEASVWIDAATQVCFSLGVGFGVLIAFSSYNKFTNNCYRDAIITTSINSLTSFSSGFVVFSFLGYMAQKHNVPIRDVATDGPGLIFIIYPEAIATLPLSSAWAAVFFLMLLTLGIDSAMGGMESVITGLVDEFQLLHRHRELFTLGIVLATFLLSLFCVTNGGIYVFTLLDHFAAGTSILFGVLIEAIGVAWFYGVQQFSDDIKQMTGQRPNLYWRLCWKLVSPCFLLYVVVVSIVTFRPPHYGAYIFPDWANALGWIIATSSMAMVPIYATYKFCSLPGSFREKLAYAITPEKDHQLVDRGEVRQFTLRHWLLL
norepinephrine transporter, sequence (P23975 whole entry): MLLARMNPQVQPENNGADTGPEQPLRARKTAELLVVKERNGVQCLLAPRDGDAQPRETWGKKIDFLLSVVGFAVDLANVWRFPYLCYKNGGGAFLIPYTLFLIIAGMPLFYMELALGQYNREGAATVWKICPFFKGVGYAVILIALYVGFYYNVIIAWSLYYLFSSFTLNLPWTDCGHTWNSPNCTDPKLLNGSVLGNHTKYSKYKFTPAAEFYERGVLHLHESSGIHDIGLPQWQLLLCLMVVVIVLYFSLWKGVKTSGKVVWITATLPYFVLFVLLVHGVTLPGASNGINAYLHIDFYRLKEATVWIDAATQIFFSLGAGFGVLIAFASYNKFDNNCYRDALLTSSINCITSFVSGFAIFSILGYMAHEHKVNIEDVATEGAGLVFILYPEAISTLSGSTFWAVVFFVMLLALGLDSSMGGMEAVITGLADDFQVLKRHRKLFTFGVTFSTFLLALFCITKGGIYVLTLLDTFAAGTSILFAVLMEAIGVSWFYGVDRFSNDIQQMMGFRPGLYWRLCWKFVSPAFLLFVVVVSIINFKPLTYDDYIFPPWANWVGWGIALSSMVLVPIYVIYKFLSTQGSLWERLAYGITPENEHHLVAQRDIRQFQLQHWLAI
DAT, sequence (Q01959 whole entry): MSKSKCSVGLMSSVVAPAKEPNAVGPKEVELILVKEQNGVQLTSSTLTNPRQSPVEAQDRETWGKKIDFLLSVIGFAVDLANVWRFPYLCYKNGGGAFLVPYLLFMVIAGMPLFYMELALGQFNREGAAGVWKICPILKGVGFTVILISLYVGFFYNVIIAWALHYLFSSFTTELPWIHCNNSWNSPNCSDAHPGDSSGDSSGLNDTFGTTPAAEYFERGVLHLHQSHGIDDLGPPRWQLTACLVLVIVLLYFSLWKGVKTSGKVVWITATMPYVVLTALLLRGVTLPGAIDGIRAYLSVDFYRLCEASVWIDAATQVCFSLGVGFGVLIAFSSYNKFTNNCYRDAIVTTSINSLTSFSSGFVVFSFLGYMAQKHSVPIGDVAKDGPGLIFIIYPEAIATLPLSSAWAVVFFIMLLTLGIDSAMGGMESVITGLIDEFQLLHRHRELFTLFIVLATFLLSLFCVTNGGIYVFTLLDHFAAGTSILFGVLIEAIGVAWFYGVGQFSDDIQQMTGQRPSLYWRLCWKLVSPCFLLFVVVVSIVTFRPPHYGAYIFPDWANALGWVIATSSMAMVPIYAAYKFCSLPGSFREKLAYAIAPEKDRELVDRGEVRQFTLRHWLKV
dopamine transporter (Homo sapiens, UniProt Q01959), sequence (Q01959 whole entry): as above

CCC(=O)[C@H]1[C@@H](c2ccc(C)cc2)C[C@@H]2CC[C@H]1N2C [PPT, 2β-propanoyl-3β-(4-tolyl)-tropane]
time of onset after administration [1]: ca. 30 minutes | addictiveness ([2]; monkeys): not addictive | decrease of self-administered cocaine intake ([2]; monkeys): 70%

CN1[C@H]2CC[C@@H]1[C@@H](C(=O)Oc1ccccc1)[C@@H](c1ccc(Cl)cc1)C2 [RTI-113]
duration of action [3]: over 4 hours | time to peak action after administration [3]: 30 to 60 min | effectiveness of elimination of cocaine consumption ([2]; 60% occupancy of the dopamine transporter): 92% | effect on self-administration of cocaine [2]: inhibits self-administration of cocaine | IC50 [4]: 1.98 nM

Cc1ccc(-c2cc([C@@H]3C4CCC(C[C@@H]3c3ccc(Cl)cc3)N4C)on2)cc1 (some centres unmarked) [RTI-336]
time to peak action after administration [3]: 70 to 100 min | effect on self-administration of cocaine [2]: effective blocking of cocaine self-administration | IC50 [4]: 4.09 nM

COC(=O)[C@H]1[C@@H](OC(=O)c2ccccc2)C[C@@H]2CC[C@H]1N2C [cocaine]
time to peak concentration in brain [5]: 4 to 6 min | time of peak uptake into the brain ([6]; dosed intravenously): 4 to 6 min | half-life in the brain ([6]; intravenous): 20 min

Clc1ccc(C2(CN3CCCC(COc4ccccc4)C3)CCC2)cc1 (centres unmarked) [compound 4]
EC50 [7]: < 1000 nM | IC50 [8]: > 1000 nM | IC50 [9]: < 1000 nM | change in autonomic signs of behavior [10]: No obvious change | mortality ([10]; monitored daily for 3 days): no mortality | IC50 [11]: > 1000 nM
